{
  "source": "patent US20050004044A1",
  "about": "“Use of orsaponin [3beta, 16beta, 17 alpha-trihydroxycholost-5-en-22-one 16-0-(2-0-4-methoxybenzoyl-beta-D-xylopyranosyl)-(1->3)-(2-0-acetyl-alpha-L-arabinopyranoside)] or OSW-1 and its derivatives for cancer therapeutics” (priority 2003, published 2005)",
  "key": {"[1]": {"system": "ML-1 leukemia cells", "test": "MTT cell growth inhibition, ML-1", "assay_type": "cell-based, human", "conditions": "Homo sapiens, 72 h, ML-1, 72 h", "method": "(§1) 1. MTT Assays. For these assays either cancer cell lines were used. Alternatively, mononuclear cells from peripheral blood samples of CLL patients or normal donors were separated by Ficoll Hipaque fractionation and resuspended in DMEM complete medium. Malignant cells from various human cell lines (usually at 5×10^4 cells/ml) or mononuclear cells from peripheral blood of leukemia patients and healthy donors (1×10^6 cells/ml) were incubated in either αMEM or RPMI 1640 with or without various concentrations of OSW-1 in the range of 0-10 nM. Each experimental condition was done in triplicate. After the indicated number of days (usually 3 days or 72 hours) of exposure to OSW-1, cell survival was assessed by the addition of the MTT dye to the wells. The MTT dye changes its color depending on the presence of live cells in the well. Survival of cells under orsaponin treatment was evaluated as a percentage of control cell growth. Alternatively, one can also use the dye trypan-blue which penetrates dead cells thereby allowing one to count live cells under the microscope and estimating percentage survival.\nAnticancer activities of Orsaponin and 17-deoxyorsaponin were examined in human leukemia cells (ML-1) and human lymphoma cells (Raji). Cells were incubated with various concentrations of Orsaponin and 17-deoxyorsaponin for 72 h, and cell growth inhibition was measured by MTT assay.\nThe effect of 17-deoxyorsaponin in human ovarian cancer cells was determined. SKOV3 ovarian cancer cells were incubated with various concentrations of 17-deoxyorsaponin for 72 h. Cell growth inhibition was measured by MTT assay (FIG. 17). […] The effect of 17-deoxyorsaponin in human acute myeloid leukemia cells was also examined. ML-1 leukemia cells were incubated with various concentrations of 17-deoxyorsaponin for 72 h and cell growth inhibition was measured using the MTT assay (FIG. 18)."}, "[2]": {"test": "5-day intravenous toxicity study in mice", "assay_type": "in vivo, ICR mice", "conditions": "for Early Deaths: 15 dosed; for NOAEL at 5 days: ICR", "method": "To assess the toxicity of orsaponin of the present invention, a 5-day intravenous study with Orsaponin in mice was conducted. […] Five mice from each group were scheduled to be sacrificed 3, 14, and 42 days after the last dose was administered.\nTissues (liver with gall bladder, kidneys, heart with aorta, lungs, spleen, skeletal muscle, brain, pituitary gland, eyes, pancreas, stomach, duodenum, jejunum, ileum, cecum, colon, mesenteric lymph node, salivary gland, mandibular lymph node, thymus, adrenal glands, larynx/pharynx/tongue, thyroid gland, parathyroid, trachea, esophagus, skin, mammary gland (females only), prostate, seminal vesicles, urinary bladder, testes, epididymides, ovary, uterus, cervix, femur/knee joint, sternum, bone marrow, and gross lesions) were processed for microscopic evaluation.\nIndividual animal organ weight was also measured. Calculation of percent of control using the relative weight of the individual organs per 100 grams of the terminal body weight (TBW) is included below in Tables 8 and 9. A change of greater than 20% difference was considered toxicologically important, and/or a clear dose response relationship."}, "[3]": {"system": "HCT116 p53+/+ colon cancer cells", "test": "Colony formation assay, HCT116 p53+/+", "assay_type": "cell-based, human", "method": "(§2) FIG. 6. Effect of OSW-1 on cell survival in human colon carcinoma cells. Human colon cancer cells with wild-type p53 (HCT116 p53+/+) and p53-null (HCT116 p53−/−) were treated with the indicated concentrations of OSW-1, and cell survival was measured by colony formation assay.\n(§3) OSW-1 Inhibits Growth of Human Colon Cancer Cells. […] The HCT116 colon cancer cells with wild-type p53 (p53+/+) and p53-null (p53−/−) were treated with the various concentrations of orsaponin (OSW-1), and cell survival was measured by colony formation assay."}, "[4]": {"system": "AsPC-1/IκBα-ND cells", "test": "MTT cell growth inhibition, AsPC-1 with NFκB inactivated", "assay_type": "cell-based", "conditions": "Homo sapiens, ASPC1, 72 h", "method": "FIG. 4. The anticancer activity of Orsaponin (OSW-1) is not affected by NFκB expression in pancreatic cancer cells. Human pancreatic cancer cells AsPC-1 with constitutive activation of NFκB or inactivation of NFκB by dominant negative IκBα (AsPC-1/IκBα-ND) were treated with the indicated concentrations of OSW-1 for 72 h. Cell growth inhibition was measured by MTT assay.\nas §1, with “The MTT dye changes its color depending on the presence of live cells in the well.” left out, “Alternatively, one can also use the dye trypan-blue which penetrates dead cells thereby allowing one to count live cells under the microscope and estimating percentage survival.” left out\nOSW-1 Inhibits Growth of Pancreatic Cancer Cells Irrespective of NFκB Expression. […] Cell growth inhibition was measured by MTT assay. […]"}, "[5]": {"system": "C19 cells (ML-1 mutant with mitochondrial respiration defect)", "test": "Mitochondrial transmembrane potential (rhodamine-123), C19", "assay_type": "cell-based, human", "conditions": "C19, 1 nM", "method": "FIG. 11. Effect of orsaponin (OSW-1) on mitochondrial transmembrane potential ML-1 cells. The parental ML-1 line and its mutant with mitochondrial respiration defect, clone C19, were incubated with 1 nM OSW-1 for the indicated times. Change in mitochondrial transmembrane potential was measured by cytometry analysis, using rhodamine-123 as a potential-sensitive fluorescent probe.\n3. Analysis of the Mitochondrial Transmembrane Potential. To evaluate the role of mitochondrial respiration in the cytotoxicity of OSW-1, changes in the potential of mitochondrial membrane were analyzed. Following the treatment of cells with OSW-1 for different time periods, cells were incubated with rhodamine-123 which is a potential-sensitive dye. Cytometric analysis was used to record changes in mitochondrial potential. […]\nThe effect of OSW-1 on mitochondrial transmembrane potential of ML-1 cells and the corresponding mitochondrial respiration defective mutant cell line C19 were analyzed by incubating with 1 nM OSW-1 for 4, 16 and 24 hours. Change in mitochondrial transmembrane potential was measured by cytometry analysis, using rhodamine-123 as a potential-sensitive fluorescent probe and are depicted in FIG. 11."}, "[6]": {"system": "HCT116 p53−/− colon cancer cells", "test": "Colony formation assay, HCT116 p53−/−", "assay_type": "cell-based, human", "method": "as §2, §3"}, "[7]": {"conditions": "male mice, early deaths day 4, individual animals, listed as Orsaponin"}},
  "note": "“And” between values parts separate entries of the source, which are not always exact repeats. Equal entries are not always repeated. Where two headings read alike, the source gives them in different places.",
  "data": [
    {"compound": "COc1ccc(C(=O)OC2C(OC3C(O)COC(O[C@H]4C[C@H]5[C@@H]6CC=C7C[C@@H](O)CC[C@]7(C)[C@H]6CC[C@]5(C)[C@@]4(O)[C@H](C)C(=O)CCC(C)C)C3OC(C)=O)OCC(O)C2O)cc1", "note": "(stereo partly drawn) [OSW-1, 3β, 16β, 17 α-trihydroxycholost-5-en-22-one 16-O-(2-O-4-methoxybenzoyl-β-D-xylopyranosyl)-(1->3)-(2-O-acetyl-α-L-arabinopyranoside)]", "values": [
      {"measurement": "IC50", "setting": "[1]", "result": "< 100", "unit": "pM"},
      {"measurement": "Early Deaths", "setting": "[2]; Females, 10 μg/kg/day", "result": 0},
      {"measurement": "Early Deaths", "setting": "[2]; Females, 20 μg/kg/day", "result": 0},
      {"measurement": "Early Deaths", "setting": "[2]; Females, 30 μg/kg/day", "result": 0},
      {"measurement": "Early Deaths", "setting": "[2]; Females, 40 μg/kg/day", "result": 0},
      {"measurement": "Spleen Relative Weight", "setting": "[2]; Females, 14-Day, 20 μg/kg/day", "result": "109% of Control"},
      {"measurement": "Liver Relative Weight", "setting": "[2]; Females, 14-Day, 40 μg/kg/day", "result": "105% of Control"},
      {"measurement": "Kidney Relative Weight", "setting": "[2]; Females, 42-Day, 20 μg/kg/day", "result": "116% of Control"},
      {"measurement": "Kidney Relative Weight", "setting": "[2]; Females, 42-Day, 40 μg/kg/day", "result": "105% of Control"},
      {"measurement": "Early Deaths", "setting": "[2]; Males, 10 μg/kg/day", "result": 0},
      {"measurement": "Early Deaths", "setting": "[2]; Males, 20 μg/kg/day", "result": 7},
      {"measurement": "Early Deaths", "setting": "[2]; Males, 40 μg/kg/day", "result": 15},
      {"measurement": "Kidney Relative Weight", "setting": "[2]; Males, 3-Day, 10 μg/kg/day", "result": "103% of Control"},
      {"measurement": "Kidney Relative Weight", "setting": "[2]; Males, 3-Day, 20 μg/kg/day", "result": "116% of Control"},
      {"measurement": "TBW", "setting": "[2]; Males, 14-Day, 10 μg/kg/day", "result": "107% of Control"},
      {"measurement": "mortality or morbidity", "setting": "[2]; female mice, 10, 20 or 40 μg/kg/day i.v.", "result": "no mortality or morbidity was observed"},
      {"measurement": "NOAEL at 5 days", "setting": "[2]; female, mouse, in vivo, females, read-out: no-observed-adverse-effect level (NOAEL)", "result": 0.04, "unit": "mg/kg/day"},
      {"measurement": "no-observed-effect level (NOEL)", "setting": "[2]; females", "result": 40, "unit": "µg/kg/day"},
      {"measurement": "NOEL", "setting": "[2]; male mice", "result": "No NOEL"},
      {"measurement": "mortality and morbidity", "setting": "[2]; male mice, 20 and 40 μg/kg/day, after the fourth injection", "result": "mortality and morbidity was observed"},
      {"measurement": "Hemolysis Sl, Md, Mk", "setting": "[2]; male mice, early deaths day 4, individual animals (IDs 30xx, 40xx), 30 and 40 μg/kg/day groups, listed as Orsaponin", "result": "Md (6×) and Mk and Sl"},
      {"measurement": "ALK PHOS", "setting": "[2]; [7]", "result": "1896 IU/L and 1746 IU/L and 2290 IU/L and 3302 IU/L and >4500 IU/L and >1500 IU/L (2×) and 2001 IU/L and >2842 IU/L and 3339 IU/L and 4992 IU/L and 4326 IU/L"},
      {"measurement": "ALT", "setting": "[2]; [7]", "result": "1058 IU/L and 486 IU/L and >8800 IU/L (2×) and >4400 IU/L (2×) and 2060 IU/L and >6600 IU/L (2×) and 5642 IU/L and 4950 IU/L and 5596 IU/L"},
      {"measurement": "AST", "setting": "[2]; [7]", "result": "1794 IU/L and 1167 IU/L and >8800 IU/L (3×) and 3306 IU/L and >6600 IU/L (2×) and 4341 IU/L and >4400 IU/L and 5106 IU/L and 5864 IU/L"},
      {"measurement": "Alb", "setting": "[2]; [7]", "result": "4.2 gm/dl and 3 gm/dl and 3.4 gm/dl and 2.4 gm/dl (2×) and 3.8 gm/dl (2×) and 3.3 gm/dl and 3.9 gm/dl and 2.8 gm/dl and 2.7 gm/dl"},
      {"measurement": "CHLORIDE", "setting": "[2]; [7]", "result": "103 mmol/L and 110 mmol/L (3×) and 116 mmol/L and 105 mmol/L and 109 mmol/L and 107 mmol/L"},
      {"measurement": "Glob", "setting": "[2]; [7]", "result": "2.3 gm/dl and 1.8 gm/dl (2×) and 6.6 gm/dl and 1.4 gm/dl (2×) and 1.6 gm/dl and 1.5 gm/dl and 2.1 gm/dl and 1.2 gm/dl and 1 gm/dl"},
      {"measurement": "T. PROTEIN", "setting": "[2]; [7]", "result": "6.5 gm/dl and 4.8 gm/dl (2×) and 10 gm/dl and 3.8 gm/dl and 5.4 gm/dl and 5.6 gm/dl and 6 gm/dl (2×) and 4 gm/dl and 4.1 gm/dl and 3.4 gm/dl"},
      {"measurement": "NOAEL at 5 days", "setting": "[2]; male, mouse, in vivo, males, 5 daily doses, based on pathology, read-out: NOAEL", "result": 0.01, "unit": "mg/kg/day"},
      {"measurement": "compound-related findings", "setting": "[2]; mouse, in vivo", "result": "No Orsaponin-related findings were observed"},
      {"measurement": "interpretation of AST, ALT and total bilirubin", "setting": "[2]; mouse, in vivo", "result": "severe liver disease"},
      {"measurement": "reversibility of hepatocellular lesion", "setting": "[2]; mouse, in vivo", "result": "completely reversible"},
      {"measurement": "cell survival, colony formation", "setting": "[3]", "result": "effective in killing human colon cancer cells regardless of p53 expression status"},
      {"measurement": "IC50", "setting": "[4]", "result": "~300", "unit": "pM"},
      {"measurement": "change in mitochondrial transmembrane potential", "setting": "[5]", "result": "loss of mitochondrial transmembrane potential in only a small portion the cells"},
      {"measurement": "cell survival, colony formation", "setting": "[6]", "result": "effectively kill the p53−/− cells"}
    ]}
  ]
}
